Where a SMILES comes first, the peptide text is derived from it.
O=c1cc(-c2ccccc2Cl)oc2ccc(Cl)cc12 showed a logP of 4.09.
Compound CSCC(NC(C)=O)C(N)=O (configuration not stated) has a logP of -0.6.
Cc1c(O)c(=O)ccn1CCCOC(=O)c1ccccn1 showed a logP of -0.18.
CN(C)CCOC(=O)c1ccc(S(C)(=O)=O)cc1 gave a logP of 0.45.
CC(C)c1cc(=S)ss1 showed a logP of 2.75.
Work on CCN(CC)CCC(=O)Nc1ccccc1 yielded a logP of 2.31.
For CCCCCCCOc1ccccc1NC(=O)OC(C)CN(CC)CC (configuration not stated), the logP was 5.7.
Work on CC1=C(C#N)C(C)(C)C(C#N)=C(C)N1 yielded a logP of 2.47.
CCCc1nc(Nc2ccccc2OC)nc(N2CCOCC2)n1 gave a logP of 3.59.
CSCC[C@H](N)C(=O)N1CCC[C@H]1C(=O)O (H-Met-Pro-OH) showed a logP of -2.52.
CC(C)N(CC1CN=C(N)O1)C(C)C (configuration not stated) gave a logP of 0.98.
For O=c1cc(-c2c(Cl)cccc2Cl)oc2ccccc12, the logP was 3.79.
Cc1c(O)c(=O)ccn1CCCOC(=O)c1ccccc1O gave a logP of 1.4.
COC(=O)c1cc(NC(=O)Cn2c(C)nc3ccccc3c2=O)cc(C(=O)OC)c1 showed a logP of 2.98.
Compound CCCC(=NOCC)C1=C(O)CC2(CCC(C)CC2)OC1=O (configuration not stated) has a logP of 4.07.
In the case of Cc1cnc2ccc3c(nc(N)n3C)c2n1, the logP is reported as 1.01.
CNC(=S)NN=C(C)CSCC(C)=NNC(=S)NC showed a logP of 1.38.
With CCCCCOc1cccc(NC(=O)OCCN2CCCCC2)c1 the logP was 5.5.
For CCN(C)CC(=O)Nc1c(C)cccc1C, the logP was 1.82.
In the case of Nc1nc(Cl)nc2c1ncn2[C@H]1C[C@H](O)[C@@H](CO)O1, the logP is reported as 0.02.
Work on CCS(=O)(=O)n1cc(-c2ccc(Cl)cc2)c(N2CCOCC2)c1C(=O)OC yielded a logP of 4.2.
For CC1(C)SC2C(NC(=O)C(c3ccccc3)S(=O)(=O)O)C(=O)N2C1C(=O)O (configuration not stated), the logP was -0.22.
Work on O=C(NC1CCCCCC1)NS(=O)(=O)c1cnccc1NC1CCCCC1 yielded a logP of 4.62.
For COc1ccc(CCNCC(O)COc2ccc(OCc3ncc[nH]3)cc2)cc1OC (configuration not stated), the logP was 2.6.
For CCc1c(C)nc2c3c(c(C(=O)N(C)C)cn12)CCC(c1ccccc1)O3 (configuration not stated), the logP was 3.2.
In the case of Cc1cccc2c1OP(=O)(OCC1C=CC(n3cc(C)c(=O)[nH]c3=O)O1)OC2 (configuration not stated), the logP is reported as 0.71.
In the case of CCOc1cc2ncnc(Nc3ccc(F)cc3)c2cc1OCC, the logP is reported as 3.73.
Work on NC(=O)c1[nH]cc(-c2ccc(Cl)cc2)c1N1CCOCC1 yielded a logP of 2.4.
O=C(Nc1ccccc1C(=O)O)c1ccccc1O gave a logP of 3.94.
Work on Cc1ccc(CO)c(C=NNC(=O)c2ccc(C(C)(C)C)cc2)c1O yielded a logP of 4.73.
In the case of CC(C)CNC(=O)N1C(=O)N(C)CC1O (configuration not stated), the logP is reported as 1.32.
Work on Cc1ccc(O)cc1N yielded a logP of 1.16.
Work on CN1CCc2ccccc2C1 yielded a logP of 2.14.
With CC(C)NC(=NC#N)NS(=O)(=O)c1cnccc1NC1CC1 the logP was 0.01.
CN(C)CCOC(=O)c1ccc(C(C)(C)C)cc1 gave a logP of 3.94.
Work on CCOP(=O)(OCC)C(C)(C)[N+]([O-])=Cc1c(OC)cc(OC)cc1OC yielded a logP of 1.03.
Compound COc1ccc(C2Cc3cc(C(F)(F)F)ccc3N(CCN(C)C)C(=O)C2OC(C)=O)cc1 (configuration not stated) has a logP of 4.8.
CCCCc1c(O)c(=O)cc(C)n1C showed a logP of 0.9.
For CC1=C(CC(=O)O)c2cc(F)ccc2C1=Cc1ccc(S(C)(=O)=O)cc1, the logP was 3.29.
S=C=NCCCCCCCCc1ccccc1 showed a logP of 5.81.
Compound Nc1nc(N)c2c(OCc3ccccc3)cccc2n1 has a logP of 2.82.
With CCCCCC(=O)OCC(=O)C1(O)C(C)CC2C3CCC4=CC(=O)C=CC4(C)C3(F)C(O)CC21C (configuration not stated) the logP was 4.3.
Compound Cc1sc2ccc3c(C)cc(=O)oc3c2c1C has a logP of 3.65.
Compound Brc1ccc2ccc3ccc(Br)c4ccc1c2c34 has a logP of 6.73.
Brc1cc2ccc3cccc4ccc(c1)c2c34 showed a logP of 5.8.
Compound CC(C)OP(=O)(OC(C)C)C(Cl)(Cl)P(=O)(OC(C)C)OC(C)C has a logP of 2.89.
For CC(=O)Nc1ccc(S(=O)(=O)Nc2nc(C)c(C)o2)cc1, the logP was 0.46.
With Cc1ccc(-n2nnnc2N)cc1Cl the logP was 1.89.
Work on O=c1[nH]c(=O)n(Cc2ccc(Cl)cc2Cl)cc1F yielded a logP of 1.96.
Compound CC(C)C(N)C(=O)NC(C(=O)O)C(C)C (stereo not drawn) (H-Val-Val-OH; configuration not given here) has a logP of -2.82.
CC1CC(=O)NN=C1c1ccc(-n2cnc3c2CCCC3)cc1 (configuration not stated) gave a logP of 2.52.
COc1ccc(CCNCC(O)COc2ccc(-c3nc(CN4CCOCC4)c[nH]3)cc2)cc1OC (configuration not stated) showed a logP of 2.4.
CCOP(=O)(OCC)C(C)(C)[N+]([O-])=Cc1cc[n+]([O-])cc1 showed a logP of -0.74.
Work on OC(CCNC1CCCCC1)COc1cccc2ccccc12 (configuration not stated) yielded a logP of 3.99.
CC1CC2C3CCC4=CC(=O)C=CC4(C)C3(F)C(O)CC2(C)C1(O)C(=O)COC(=O)C1CCCCC1 (configuration not stated) gave a logP of 4.46.
With CCCCCC(O)C=CC1C(O)CC(O)C1CC=CCCCC(=O)OC (configuration not stated) the logP was 3.07.
Compound CC(C)CC(NC(=O)C(Cc1ccccc1)NC(=O)C(N)C(C)C)C(=O)NC(C(=O)O)C(C)O (configuration not stated) (H-VFLT-OH; configuration not given here) has a logP of -1.32.
With NC(Cc1c[nH]c2ccccc12)C(=O)NC(Cc1c[nH]c2ccccc12)C(=O)NC(Cc1c[nH]c2ccccc12)C(=O)O (stereo not drawn) (H-Trp-Trp-Trp-OH; configuration not given here) the logP was 0.66.
In the case of O=S(=O)(NC(=S)N1CCCCC1)c1cnccc1NC1CCCCCCC1, the logP is reported as 4.5.
COC(=O)C(C)=CC1C(C(=O)OCc2cccc(Cc3ccccc3)c2)C1(C)C (configuration not stated) gave a logP of 6.41.
Work on O=Cc1ccc2ccc3cccc4ccc1c2c34 yielded a logP of 4.23.
CCCN(CCC)C1CCc2c(OC)cccc2C1C (configuration not stated) gave a logP of 4.76.
For CCCCCCCCCCCCCCc1ccccc1, the logP was 9.95.
CC(C)NC(=NC#N)NS(=O)(=O)c1cnccc1Nc1cccc(Br)c1 gave a logP of 2.27.
Work on CCCCNC(=O)N1C(=O)N(C)CC1O (configuration not stated) yielded a logP of 1.38.
In the case of OC(CNC1CCCC1)CON=C(C1CC1)C1CC1 (configuration not stated), the logP is reported as 2.46.
Compound Brc1ccc2ccc3c(Br)ccc4ccc1c2c43 has a logP of 6.69.
In the case of CC(C)C(C)NC(CO)C(O)c1ccccc1 (configuration not stated), the logP is reported as 1.61.
CC(C)CC(NC(=O)C(N)C(C)C)C(=O)O (stereo not drawn) (H-Val-Leu-OH; configuration not given here) showed a logP of -2.07.
CCOc1ccccc1NC(=O)OCCN1CCCCC1 gave a logP of 3.59.
In the case of CC(C)CNc1[nH]cnc2ncnc1-2, the logP is reported as 1.92.
CNc1ccc2cc3ccc4c(c3nc2c1CO)COCN4S(C)(=O)=O gave a logP of 1.2.
In the case of Cn1c([N+](=O)[O-])cnc1C1=NOC2CCCCC12 (configuration not stated), the logP is reported as 2.22.
Compound COC1(OC)C(N2CCOCC2)=NC(=O)N1c1ccc(Cl)cc1 has a logP of 1.7.
O=[N+]([O-])c1ncn(C2OC(CO)C(O)C2O)n1 (configuration not stated) gave a logP of -1.54.
For CCCCCCNC(=O)N1C(=O)N(C)CC1O (configuration not stated), the logP was 2.39.
COc1ccccc1-n1nnnc1N showed a logP of 0.56.
C#CCNc1nc(CCC)nc(N2CCOCC2)n1 gave a logP of 2.3.
Nc1nnnn1-c1ccc(Br)cc1 showed a logP of 1.63.
Work on CCCCCNCc1ccc(C)cc1 yielded a logP of 4.26.
O=c1cc(CCl)oc(Br)c1O showed a logP of 1.08.
CCCc1c(C)nc2cccc(C)n2c1=O gave a logP of 2.22.
With NCC(=O)NC(Cc1ccccc1)C(=O)NC(Cc1ccccc1)C(=O)O (stereo not drawn) (H-Gly-Phe-Phe-OH; configuration not given here) the logP was -1.33.
Work on CCCCOc1cccc2nc(N)nc(N)c12 yielded a logP of 2.81.
In the case of CCCN(CCCC(NC(C)=O)C(=O)NCc1ccccc1)C(=O)N(CCCl)N=O (configuration not stated), the logP is reported as 1.57.
Compound Cc1cc2c(s1)Nc1ccccc1N=C2N1CCN(C)CC1 has a logP of 3.
Work on COC(=O)c1c(Oc2nc(OC)cc(OC)n2)cccc1C(C)=NOCCCl yielded a logP of 3.23.
Cc1nc2c3c(c(C(=O)Nc4ccccc4)cn2c1C)CCC(c1ccccc1)O3 (configuration not stated) showed a logP of 5.9.
O=[N+]([O-])c1ccc(CSc2ncnc3c2ncn3C2OC(CO)C(O)C2O)cc1 (configuration not stated) gave a logP of 0.54.
For COc1ccc(CCNCC(O)COc2ccc(-c3nc(C(C)=O)c[nH]3)cc2)cc1OC (configuration not stated), the logP was 2.7.
In the case of Cc1nc2c3c(c(C(=O)N(C)C)cn2c1C)CCC(c1cccs1)O3 (configuration not stated), the logP is reported as 2.8.
With COc1ccc(CCNCC(O)COc2ccc(-c3nc(C)c(Cl)[nH]3)cc2)cc1OC (configuration not stated) the logP was 3.9.
COc1ccc(C2Cc3cc(OC)ccc3N(CCN(C)C)C(=O)C2OC(C)=O)cc1 (configuration not stated) gave a logP of 3.2.
Work on O=[N+]([O-])c1ccc(-n2cccn2)cc1 yielded a logP of 2.25.
In the case of Cc1cc(=O)oc2c1c(C)cc1occ(C)c12, the logP is reported as 3.04.
With CN(C)CCOc1c(Cl)cccc1Cl the logP was 2.57.
CC(=O)Nc1cc(NCC(C)O)c(Cl)cc1N=Nc1ccc([N+](=O)[O-])cc1Cl (configuration not stated) gave a logP of 4.
Compound CC(C)NCC(O)c1ccc([N+](=O)[O-])cc1 (configuration not stated) has a logP of 1.28.
In the case of CC(C)NCC(O)COc1ccc(-c2nc(-c3cccs3)c[nH]2)cc1 (configuration not stated), the logP is reported as 3.2.
Cn1c2c(c3cc([N+](=O)[O-])ccc31)CCNC2 showed a logP of 2.07.
Work on NC(Cc1ccc(O)cc1)C(=O)N1CCCC1C(=O)NCC(=O)NC(Cc1c[nH]c2ccccc12)C(=O)O (configuration not stated) (H-YPGW-OH; configuration not given here) yielded a logP of -1.25.
In the case of Cc1cccc(C=[N+]([O-])C(C)(C)C)c1, the logP is reported as 1.6.
For O=C1CCC(=O)N1c1cccc(Cl)c1Cl, the logP was 0.9.
With COC(=O)c1ccc2ccc3cccc4ccc1c2c34 the logP was 4.73.
COc1cc2c(Nc3cc(CC(=O)Nc4cccc(F)c4F)[nH]n3)ncnc2cc1OCCCN1CCCC1CO (configuration not stated) showed a logP of 3.6.
COCCOC(=O)C1=C(C)NC(C)=C(C(=O)OCCOC)C1c1cccc2c1OCO2 gave a logP of 2.93.
Work on O=C1C=C(N2CCOCC2)CN1c1ccc(Cl)cc1 yielded a logP of 1.9.
In the case of COC(=O)C(C)NP(=O)(OCC1C=CC(n2cc(C)c(=O)[nH]c2=O)O1)Oc1cccc(I)c1 (configuration not stated), the logP is reported as 1.78.
Work on C=CC(=O)OCC(COC(=O)C=C)(COC(=O)C=C)COC(=O)C=C yielded a logP of 2.11.
With Clc1c(Br)cccc1N=C1NCCN1 the logP was 1.82.
With NC(=O)c1cccc(Cn2cnc3ccccc32)c1 the logP was 1.7.
CC(N)C(=O)NC(Cc1ccccc1)C(=O)NCC(=O)NC(C(=O)NC(Cc1ccccc1)C(=O)O)C(C)C (configuration not stated) (H-AFGVF-OH; configuration not given here) showed a logP of -0.59.
In the case of O=c1cc(-c2cccc(Cl)c2)oc2ccccc12, the logP is reported as 3.91.
O=c1cc(-c2ccc(Cl)cc2)oc2ccccc12 gave a logP of 3.89.
With CC(C)=CCCC(C)=CCCC(C)(C)O the logP was 4.54.
In the case of Cc1ccc2c(c1)OCN(CCO[N+](=O)[O-])C2=O, the logP is reported as 2.44.
CNC(=O)c1cn2c(C)c(C)nc2c2c1CCC(c1ccccc1)O2 (configuration not stated) gave a logP of 3.6.
For Cc1c(O)c(=O)ccn1CCCOC(=O)c1ccc(F)cc1, the logP was 1.47.
Compound CC(C)CC(NC(=O)C(Cc1ccccc1)NC(=O)CNC(=O)C(NC(=O)C(N)Cc1ccc(O)cc1)C(C)O)C(=O)O (configuration not stated) (H-YTGFL-OH; configuration not given here) has a logP of -1.18.
Cc1cc2c(o1)c(C)cc1c(C)cc(=O)n(C)c12 showed a logP of 3.43.
Work on CCNc1nc(O)nc(NC(C)(C)C)n1 yielded a logP of 3.53.
For CCCc1nc(N)nc(N2CCCCC2)n1, the logP was 2.55.

Reference: the OPERA property sets (Mansouri et al. 2018)
